Here are results for 3 compounds from patent publication US20080009418A1, “Selective Inhibitors” (Alchemia LTD., priority 2004, published 2008).

One assay concerns the target T1, Human Melanocortin (MC4) (Homo sapiens, UniProt P32245).
T1 construct: purchased Perkin Elmer Biosignal
Nature of the assay: Radioligand binding, human melanocortin MC4 membranes, FlashPlate, [125I]-NDP-αMSH. As to conditions: compound at 10 μM, [125I]-NDP-αMSH. Put shortly:
(§1)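 Cloned human receptor membranes were coated onto FlashPlate wells and incubated with radioligand and compound (added from a 0.5 mM DMSO daughter plate) for 1 hour at room temperature in the dark. Scintillation counting gave percent inhibition, with DMSO defining total and reference ligand defining non-specific binding.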

The target in a further assay is T2, Human melanocortin (MC5) (Homo sapiens, UniProt P33032).
T2 construct: purchased Perkin Elmer Biosignal
T2 sequence (P33032 whole entry): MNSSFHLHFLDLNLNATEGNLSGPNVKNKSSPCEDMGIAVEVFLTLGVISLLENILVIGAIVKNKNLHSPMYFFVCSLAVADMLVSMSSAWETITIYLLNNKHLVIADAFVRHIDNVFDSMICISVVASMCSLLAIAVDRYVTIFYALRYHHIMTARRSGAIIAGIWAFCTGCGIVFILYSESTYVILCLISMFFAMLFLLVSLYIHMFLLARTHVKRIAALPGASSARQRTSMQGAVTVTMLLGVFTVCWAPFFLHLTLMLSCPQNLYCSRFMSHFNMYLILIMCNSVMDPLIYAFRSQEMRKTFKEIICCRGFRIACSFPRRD
Description: Radioligand binding, human melanocortin MC5 membranes, FlashPlate, [125I]-NDP-αMSH. As to conditions: compound at 10 μM, [125I]-NDP-αMSH. Put shortly: as §1

Another assay deals with T3, Human neurokinin (NK1) (Homo sapiens, UniProt P25103).
T3 construct: purchased Perkin Elmer Biosignal
T3 sequence (P25103 whole entry): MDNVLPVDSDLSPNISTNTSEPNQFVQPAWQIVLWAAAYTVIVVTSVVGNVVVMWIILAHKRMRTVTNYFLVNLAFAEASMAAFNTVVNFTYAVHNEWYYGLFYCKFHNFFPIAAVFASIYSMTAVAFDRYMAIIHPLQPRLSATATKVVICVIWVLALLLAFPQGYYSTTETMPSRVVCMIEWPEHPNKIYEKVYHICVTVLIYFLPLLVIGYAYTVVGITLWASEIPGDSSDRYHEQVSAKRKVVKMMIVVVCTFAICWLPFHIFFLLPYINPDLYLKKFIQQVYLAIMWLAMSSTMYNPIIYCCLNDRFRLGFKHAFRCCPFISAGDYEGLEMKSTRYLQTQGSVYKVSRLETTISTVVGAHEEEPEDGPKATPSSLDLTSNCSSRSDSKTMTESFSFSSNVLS
Description: Radioligand binding, human neurokinin NK1 membranes, filtration, [125I]-Substance P. To be noted: compound at 10 μM, [125I]-Substance P. Put shortly: (§2)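 Filtration binding on cloned human receptor membranes (1 Unit/well), [125I]-Substance P for NK1 and [3H]-Diprenorphine for KOP, 1 h at room temperature. Filters PEI-presoaked, washed with cold 50 mM Tris-HCl pH 7.4, counted by scintillation; percent inhibition calculated, reference ligand defining non-specific binding.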

The next assay concerns the target T4, Human opioid (ORL1) (Homo sapiens, UniProt P41146).
T4 construct: purchased Perkin Elmer Biosignal
Nature of the assay: Radioligand binding, human opioid ORL1 membranes, FlashPlate, [125I]-Nociceptin. As to conditions: compound at 10 μM, [125I]-Nociceptin. Put shortly: as §1

The next assay concerns the target T5, Mouse urotensin (mUR2) (Mus musculus, UniProt Q8VIH9).
T5 construct: purchased Perkin Elmer Biosignal
T5 sequence (Q8VIH9 1-385): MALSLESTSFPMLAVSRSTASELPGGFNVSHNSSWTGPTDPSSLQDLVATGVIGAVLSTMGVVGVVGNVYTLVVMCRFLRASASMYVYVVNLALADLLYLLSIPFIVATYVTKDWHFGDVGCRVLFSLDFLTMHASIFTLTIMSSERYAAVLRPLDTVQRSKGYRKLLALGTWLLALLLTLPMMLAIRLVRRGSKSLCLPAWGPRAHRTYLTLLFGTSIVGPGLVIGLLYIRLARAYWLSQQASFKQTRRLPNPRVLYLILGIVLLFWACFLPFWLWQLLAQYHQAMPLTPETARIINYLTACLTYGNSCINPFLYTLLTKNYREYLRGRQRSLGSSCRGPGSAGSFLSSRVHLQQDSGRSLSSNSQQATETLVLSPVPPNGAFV
Description: Radioligand binding, mouse urotensin mUR2 membranes, FlashPlate, [125I]-Urotensin II. As to conditions: compound at 10 μM, [125I]-Urotensin II. In a few lines: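 Cloned mouse urotensin (mUR2) receptor membranes from Perkin Elmer Biosignal were immobilized in FlashPlate microplates using a proprietary coating. Each well got 19.5 μl buffer, then 0.5 μl of DMSO, reference ligand, or compound. Adding 5 μl of [125I]-Urotensin II, diluted to 5× final concentration in binding buffer, started binding. Plates were sealed with TopSeal-A and incubated 1 hour at room temperature in the dark. Wells were counted for 30 seconds each on a TopCount after a 60-second delay, and percentage inhibition was calculated.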

A further assay has as its target T6, Human δ-opioid (DOP) (Homo sapiens, UniProt P41143).
T6 construct: purchased Perkin Elmer Biosignal
Nature of the assay: Radioligand binding, human δ-opioid (DOP) membranes, FlashPlate, [3H]-Bremazocine. As to conditions: compound at 10 μM, [3H]-Bremazocine. In a few lines: as §1

Assay [1] deals with T7, Human neuropeptide Y (NPY-Y1) (Homo sapiens, UniProt P25929).
T7 construct: purchased Perkin Elmer Biosignal
T7 sequence (P25929 1-384): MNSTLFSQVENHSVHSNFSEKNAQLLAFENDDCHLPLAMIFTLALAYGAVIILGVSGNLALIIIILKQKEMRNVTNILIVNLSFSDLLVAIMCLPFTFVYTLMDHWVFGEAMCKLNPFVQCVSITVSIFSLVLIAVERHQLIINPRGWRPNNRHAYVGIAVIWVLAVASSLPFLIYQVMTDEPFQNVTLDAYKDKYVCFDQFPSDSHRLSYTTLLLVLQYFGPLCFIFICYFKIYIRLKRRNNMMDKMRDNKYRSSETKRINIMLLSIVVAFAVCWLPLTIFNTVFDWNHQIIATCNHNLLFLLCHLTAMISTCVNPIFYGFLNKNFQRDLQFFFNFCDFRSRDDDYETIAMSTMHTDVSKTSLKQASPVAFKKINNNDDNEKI
Description: Radioligand binding, human neuropeptide Y NPY-Y1 membranes, FlashPlate, [125I]-PYY. To be noted: compound at 10 μM, [125I]-PYY. In a few lines: as §1

Another assay deals with T8, Human μ-opioid (MOP) (Homo sapiens, UniProt P35372).
T8 construct: purchased Perkin Elmer Biosignal
T8 sequence (P35372 whole entry): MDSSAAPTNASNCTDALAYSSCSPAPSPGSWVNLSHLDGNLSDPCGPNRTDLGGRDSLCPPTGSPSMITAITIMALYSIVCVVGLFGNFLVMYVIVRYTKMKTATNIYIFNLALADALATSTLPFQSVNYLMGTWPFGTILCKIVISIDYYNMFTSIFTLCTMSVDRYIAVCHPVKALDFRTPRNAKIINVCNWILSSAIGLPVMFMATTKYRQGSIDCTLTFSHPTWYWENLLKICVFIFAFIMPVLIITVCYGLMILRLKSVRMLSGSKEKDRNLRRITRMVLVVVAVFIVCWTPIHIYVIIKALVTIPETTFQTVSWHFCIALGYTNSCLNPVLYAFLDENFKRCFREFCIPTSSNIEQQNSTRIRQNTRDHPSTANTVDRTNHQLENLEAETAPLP
Nature of the assay: Radioligand binding, human μ-opioid (MOP) membranes, FlashPlate, [3H]-Naloxone. As to conditions: compound at 10 μM, [3H]-Naloxone. In a few lines:
as §1

Assay [2] concerns the target T9, Human melanin-concentrating hormone (MCH1) (Homo sapiens, UniProt Q99705).
T9 construct: purchased Perkin Elmer Biosignal
Nature of the assay: Radioligand binding, human melanin-concentrating hormone MCH1 membranes, FlashPlate, [125I]-S36057. As to conditions: compound at 10 μM. Put shortly: as §1

The target of a further assay is T10, Human κ-Opioid (KOP) (Homo sapiens, UniProt P41145).
T10 construct: purchased Perkin Elmer Biosignal
T10 sequence (P41145 whole entry): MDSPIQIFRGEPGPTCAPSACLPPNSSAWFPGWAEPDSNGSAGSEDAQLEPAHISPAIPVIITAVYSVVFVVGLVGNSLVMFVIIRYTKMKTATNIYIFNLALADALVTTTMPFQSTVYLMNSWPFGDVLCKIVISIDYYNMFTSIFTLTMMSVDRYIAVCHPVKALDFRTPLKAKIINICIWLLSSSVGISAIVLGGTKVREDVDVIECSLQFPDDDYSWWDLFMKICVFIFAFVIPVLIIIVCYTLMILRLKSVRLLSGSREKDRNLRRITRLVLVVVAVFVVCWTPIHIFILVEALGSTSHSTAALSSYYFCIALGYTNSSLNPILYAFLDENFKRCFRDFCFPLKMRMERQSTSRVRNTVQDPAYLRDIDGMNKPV
Nature of the assay: Radioligand binding, human κ-opioid (KOP) membranes, filtration, [3H]-Diprenorphine. As to conditions: compound at 10 μM, [3H]-Diprenorphine. Put shortly:
as §2

The next assay concerns the target T11, Human Melanocortin (MC3) (Homo sapiens, UniProt P41968).
T11 construct: purchased Perkin Elmer Biosignal
Nature of the assay: Radioligand binding, human melanocortin MC3 membranes, FlashPlate, [125I]-NDP-αMSH. As to conditions: compound at 10 μM, [125I]-NDP-αMSH. In a few lines: as §1

T1 sequence (P32245 whole entry): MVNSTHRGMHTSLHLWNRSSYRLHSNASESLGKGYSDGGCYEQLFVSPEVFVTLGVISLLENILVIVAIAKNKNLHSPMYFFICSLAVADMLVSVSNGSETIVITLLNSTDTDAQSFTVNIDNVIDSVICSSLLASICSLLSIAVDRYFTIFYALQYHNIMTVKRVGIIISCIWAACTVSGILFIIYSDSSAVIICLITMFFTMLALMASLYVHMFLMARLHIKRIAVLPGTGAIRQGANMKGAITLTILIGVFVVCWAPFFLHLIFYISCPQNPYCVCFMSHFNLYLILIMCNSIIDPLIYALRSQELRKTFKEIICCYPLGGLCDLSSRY
T6 sequence (P41143 whole entry): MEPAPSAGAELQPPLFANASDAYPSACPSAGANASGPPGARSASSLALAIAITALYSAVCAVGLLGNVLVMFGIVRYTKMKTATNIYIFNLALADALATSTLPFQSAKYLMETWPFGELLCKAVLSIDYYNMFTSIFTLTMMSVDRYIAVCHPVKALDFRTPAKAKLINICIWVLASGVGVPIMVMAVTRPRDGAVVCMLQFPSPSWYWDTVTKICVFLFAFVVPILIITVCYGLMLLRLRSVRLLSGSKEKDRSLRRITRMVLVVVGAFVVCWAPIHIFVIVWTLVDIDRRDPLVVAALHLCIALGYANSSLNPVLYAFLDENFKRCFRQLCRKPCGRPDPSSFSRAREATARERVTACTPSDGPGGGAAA
T4 sequence (P41146 whole entry): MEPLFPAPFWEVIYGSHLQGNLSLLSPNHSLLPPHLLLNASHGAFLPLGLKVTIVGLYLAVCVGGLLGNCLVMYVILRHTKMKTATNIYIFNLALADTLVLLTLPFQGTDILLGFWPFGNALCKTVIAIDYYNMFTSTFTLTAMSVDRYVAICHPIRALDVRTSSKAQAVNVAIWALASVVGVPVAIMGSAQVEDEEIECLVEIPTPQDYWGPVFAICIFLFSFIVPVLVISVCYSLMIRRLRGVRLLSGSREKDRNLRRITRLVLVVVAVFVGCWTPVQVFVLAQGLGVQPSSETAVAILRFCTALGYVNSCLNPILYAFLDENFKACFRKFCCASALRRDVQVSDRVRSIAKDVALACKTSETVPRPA
T11 sequence (P41968 whole entry): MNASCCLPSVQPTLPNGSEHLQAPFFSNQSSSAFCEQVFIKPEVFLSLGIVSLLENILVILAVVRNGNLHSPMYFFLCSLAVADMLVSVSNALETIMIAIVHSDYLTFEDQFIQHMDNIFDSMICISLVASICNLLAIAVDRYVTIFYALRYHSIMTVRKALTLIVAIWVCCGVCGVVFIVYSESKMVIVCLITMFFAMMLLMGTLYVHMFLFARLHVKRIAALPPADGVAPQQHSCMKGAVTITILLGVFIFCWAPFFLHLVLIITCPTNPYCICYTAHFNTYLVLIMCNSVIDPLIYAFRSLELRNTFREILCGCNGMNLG
T9 sequence (Q99705 whole entry): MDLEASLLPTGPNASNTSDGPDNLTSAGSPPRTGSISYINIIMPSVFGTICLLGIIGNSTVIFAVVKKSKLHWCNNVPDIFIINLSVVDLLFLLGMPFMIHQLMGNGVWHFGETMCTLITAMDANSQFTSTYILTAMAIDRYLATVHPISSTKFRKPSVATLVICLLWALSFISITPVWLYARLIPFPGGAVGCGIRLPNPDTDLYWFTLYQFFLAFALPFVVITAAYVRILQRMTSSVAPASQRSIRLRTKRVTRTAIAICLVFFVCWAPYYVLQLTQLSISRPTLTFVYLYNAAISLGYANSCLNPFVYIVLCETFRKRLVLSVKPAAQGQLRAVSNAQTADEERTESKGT

As for `NCCCC(=O)NC1C(OCc2ccc3ccccc3c2)OC(COCc2ccc3ccccc3c2)C(O)C1OCc1ccc2ccccc2c1` (stereo not drawn) [compound 393], the “A4: inhibition of radioligand binding” value at Human Melanocortin (MC4) (human MC4 membranes, 10 µM) is listed as “+ (“+” indicates greater than 50% inhibition at 10 μM)”. Further, the “A5: inhibition of radioligand binding” value at Human melanocortin (MC5) (human MC5 membranes) was “+ (“+” indicates greater than 50% inhibition at 10 μM)”. Moreover, at Human neurokinin (NK1) (human NK1 membranes), the “A8: inhibition of radioligand binding” value is reported as “+ (“+” indicates greater than 50% inhibition at 10 μM)”. At Human opioid (ORL1) (human ORL1 membranes, 10 µM), the “A10: inhibition of radioligand binding” value is given as “− (“−” indicates less than 50% inhibition at 10 μM)”. Further, the “A11: inhibition of radioligand binding” value at Mouse urotensin (mUR2) (mouse mUR2 membranes) is reported as “− (“−” indicates less than 50% inhibition at 10 μM)”. In addition, the “A1: inhibition of radioligand binding” value at Human δ-opioid (DOP) (human DOP membranes) is recorded as “− (“−” indicates less than 50% inhibition at 10 μM)”. The “A9: inhibition of radioligand binding” value in [1] (human NPY-Y1 membranes) was “− (“−” indicates less than 50% inhibition at 10 μM)”. For the same compound, the “A7: inhibition of radioligand binding” value at Human μ-opioid (MOP) (human MOP membranes, 10 µM) is given as “− (“−” indicates less than 50% inhibition at 10 μM)”. The “A6: inhibition of radioligand binding” value in [2] ([125I]-S36057, human MCH1 membranes, 10 µM) is on record as “− (“−” indicates less than 50% inhibition at 10 μM)”. Also, the “A2: inhibition of radioligand binding” value at Human κ-Opioid (KOP) (human KOP membranes) is reported as “− (“−” indicates less than 50% inhibition at 10 μM)”. Besides, on Human Melanocortin (MC3) (human MC3 membranes, 10 µM), the “A3: inhibition of radioligand binding” value was “+ (“+” indicates greater than 50% inhibition at 10 μM)”.
Take `COCC1OC(OCc2ccc(Cl)cc2)C(NC(=O)CCNC(=N)N)C(OCc2ccc3ccccc3c2)C1O` (stereo not drawn) [compound 211]: on Human Melanocortin (MC4) (FlashPlate), the “A4: inhibition of radioligand binding” value is “+ (“+” indicates greater than 50% inhibition at 10 μM)”. The “A5: inhibition of radioligand binding” value at Human melanocortin (MC5) (FlashPlate) was “+ (“+” indicates greater than 50% inhibition at 10 μM)”. Moreover, the “A8: inhibition of radioligand binding” value at Human neurokinin (NK1) (filtration) was “+ (“+” indicates greater than 50% inhibition at 10 μM)”. Further, the “A10: inhibition of radioligand binding” value at Human opioid (ORL1) (FlashPlate) is reported as “− (“−” indicates less than 50% inhibition at 10 μM)”. For the same compound, the “A11: inhibition of radioligand binding” value on Mouse urotensin (mUR2) (FlashPlate) is “− (“−” indicates less than 50% inhibition at 10 μM)”. Also, the “A1: inhibition of radioligand binding” value on Human δ-opioid (DOP) (FlashPlate) is recorded as “− (“−” indicates less than 50% inhibition at 10 μM)”. Moreover, the “A9: inhibition of radioligand binding” value in assay [1] (FlashPlate) was “− (“−” indicates less than 50% inhibition at 10 μM)”. The “A7: inhibition of radioligand binding” value at Human μ-opioid (MOP) (FlashPlate) is “+ (“+” indicates greater than 50% inhibition at 10 μM)”. The “A6: inhibition of radioligand binding” value in assay [2] ([125I]-S36057, FlashPlate) is reported as “+ (“+” indicates greater than 50% inhibition at 10 μM)”. The “A2: inhibition of radioligand binding” value on Human κ-Opioid (KOP) (filtration) is given as “+ (“+” indicates greater than 50% inhibition at 10 μM)”. Further, on Human Melanocortin (MC3) (FlashPlate), the “A3: inhibition of radioligand binding” value is “− (“−” indicates less than 50% inhibition at 10 μM)”.
Regarding `CO[C@H]1[C@H](O)[C@@H](COCc2cccc(O)c2)OC(OCc2ccc3ccccc3c2)[C@@H]1NC(=O)CCNC(=N)N` (stereo partly drawn) [compound 151], the “A4 radioligand binding, percentage inhibition” value at Human Melanocortin (MC4) is “− (“−” indicates less than 50% inhibition at 10 μM)”. The “A5 radioligand binding, percentage inhibition” value on Human melanocortin (MC5) is reported as “− (“−” indicates less than 50% inhibition at 10 μM)”. Moreover, the “A8 radioligand binding, percentage inhibition” value on Human neurokinin (NK1) is on record as “− (“−” indicates less than 50% inhibition at 10 μM)”. Further, the “A10 radioligand binding, percentage inhibition” value at Human opioid (ORL1) is given as “− (“−” indicates less than 50% inhibition at 10 μM)”. Moreover, the “A11 radioligand binding, percentage inhibition” value at Mouse urotensin (mUR2) is “− (“−” indicates less than 50% inhibition at 10 μM)”. Besides, the “A1 radioligand binding, percentage inhibition” value at Human δ-opioid (DOP) is “− (“−” indicates less than 50% inhibition at 10 μM)”. Besides, the “A9 radioligand binding, percentage inhibition” value in assay [1] is “− (“−” indicates less than 50% inhibition at 10 μM)”. Further, at Human μ-opioid (MOP), the “A7 radioligand binding, percentage inhibition” value was “+ (“+” indicates greater than 50% inhibition at 10 μM)”. In addition, in [2] ([125I]-S36057), the “A6 radioligand binding, percentage inhibition” value is on record as “− (“−” indicates less than 50% inhibition at 10 μM)”. Besides, the “A2 radioligand binding, percentage inhibition” value on Human κ-Opioid (KOP) is listed as “− (“−” indicates less than 50% inhibition at 10 μM)”. Further, the “A3 radioligand binding, percentage inhibition” value on Human Melanocortin (MC3) is “− (“−” indicates less than 50% inhibition at 10 μM)”.
